Data as given in ChEMBL document CHEMBL5058564, “EUbOPEN Chemogenomics Library 2 (Incucyte)” (2022).

Columns and labels:
Type in all cases: toxicity, cell-based
HEK-293T = assay: Incucyte cell viability with HEK293T; conditions: human, 10 µM, compound concentration 10 uM
U2OS = assay: Incucyte cell viability with U2OS; conditions: human, 10 µM, compound concentration 10 uM
Fibroblast = assay: Incucyte cell viability with human fibroblast; conditions: 10 µM, compound concentration 10 uM
[1] = 6 h, replicate number 1, timepoint 6 hours
[2] = 6 h, replicate number 2, timepoint 6 hours
[3] = 12 h, replicate number 1, timepoint 12 hours
[4] = 12 h, replicate number 2, timepoint 12 hours
[5] = 18 h, replicate number 1, timepoint 18 hours
[6] = 18 h, replicate number 2, timepoint 18 hours
[7] = 24 h, replicate number 1, timepoint 24 hours
[8] = 24 h, replicate number 2, timepoint 24 hours
[9] = 0 h, replicate number 1, timepoint 0 hours
[10] = 0 h, replicate number 2, timepoint 0 hours
Further: unitless GR value; below 1 slowed growth and below 0 cell loss.

SMILES	Growth Rate (HEK-293T; [1])	Growth Rate (HEK-293T; [2])	Growth Rate (HEK-293T; [3])	Growth Rate (HEK-293T; [4])	Growth Rate (HEK-293T; [5])	Growth Rate (HEK-293T; [6])	Growth Rate (HEK-293T; [7])	Growth Rate (HEK-293T; [8])	Growth Rate (U2OS; [9])	Growth Rate (U2OS; [3])	Growth Rate (U2OS; [4])	Growth Rate (U2OS; [5])	Growth Rate (U2OS; [6])	Growth Rate (U2OS; [7])	Growth Rate (U2OS; [8])	Growth Rate (Fibroblast; [1])	Growth Rate (Fibroblast; [3])	Growth Rate (Fibroblast; [5])	Growth Rate (Fibroblast; [7])	Growth Rate (Fibroblast; [8])	other results
O=C(NCCO)c1cccc(-c2cc(Nc3ccc(OC(F)(F)F)cc3)ncn2)c1	-0.41	-0.4	-0.19	-0.13	0.05	0.17	0.15	0.26	-0.12	0.52	0.83	0.47	0.99	0.79	0.91	-0.91	-0.72	-0.61	-0.55	0.06	Growth Rate (U2OS; [10]): 0.42; Growth Rate (U2OS; [1]): 0.49; Growth Rate (U2OS; [2]): 1; Growth Rate (Fibroblast; [10]): 0.6; Growth Rate (Fibroblast; [4]): 0.04; Growth Rate (Fibroblast; [6]): 0.03
C[C@@H](c1ccc(F)cc1)n1nnc2cnc3ccc(-c4ccc5ocnc5c4)cc3c21	-0.12	-0.31	-0.11	-0.14	0.09	0.07	0.23	0.21	-0.51		0.94	0.75	0.83	0.51	0.82						Growth Rate (U2OS; [10]): 0.33; Growth Rate (Fibroblast; [9]): 0.92
CN(C)CCCOc1ccc(-c2cc(NCCCn3cccn3)nc(S(C)(=O)=O)n2)cc1	0.9					0.97		0.97	0.2			0.71	0.82	0.85		0.86			0.96		Growth Rate (U2OS; [1]): 0.22; Growth Rate (Fibroblast; [10]): 0.56
CNCCN1CCC(c2cc(CN(C)C(=O)c3cccc(Oc4ccccc4)c3)ccn2)CC1	0.74		0.76	0.86	0.98	0.92	1	0.81	-0.2	0.88	0.99	0.96		0.37		0.73	0.83	0.55	0.43		Growth Rate (U2OS; [10]): 0.56; Growth Rate (U2OS; [2]): 0.98; Growth Rate (Fibroblast; [9]): 0.7; Growth Rate (Fibroblast; [10]): 0.9; Growth Rate (Fibroblast; [2]): 0.98
CC(C)(C)c1ccc(-c2coc3ccc(-c4cn[nH]c4)nc23)cc1	0.36	0.2	0.44	0.39	0.66		0.67	0.62	0.4		0.79	0.76	0.53	0.69	0.43	-0.89	-0.7	-0.62	-0.48	0.09	Growth Rate (Fibroblast; [2]): -0.35; Growth Rate (Fibroblast; [4]): 0; Growth Rate (Fibroblast; [6]): 0.05
O=C1NCc2ccc3c(-c4cccc(Cl)c4)c[nH]c3c21	-0.52	-0.56	-0.31	-0.09	-0.21	-0.1	-0.19	-0.07	-0.28	0.07	-0.24	0.03	-0.24	-0.13	-0.28	-0.99	-0.86	-0.65	-0.39	0.01	Growth Rate (U2OS; [10]): 0.01; Growth Rate (U2OS; [1]): 0.17; Growth Rate (U2OS; [2]): -0.08; Growth Rate (Fibroblast; [2]): -0.83; Growth Rate (Fibroblast; [4]): -0.4; Growth Rate (Fibroblast; [6]): -0.18
NC(=O)c1cccc(-c2cc(Nc3ccc(OC(F)(F)F)cc3)ncn2)c1	-0.43	0.03	0.03	0.25	0.18	0.3	0.26	0.48		0.98			0.93	0.94		-0.84	-0.48	-0.35	-0.05	0.46	Growth Rate (Fibroblast; [2]): 0.58; Growth Rate (Fibroblast; [4]): 0.37; Growth Rate (Fibroblast; [6]): 0.53
CN1CCN(c2cc(-c3ccccc3)nc(N)n2)CC1		0.96							0.75		0.96	0.97					0.86	0.76	0.83		Growth Rate (U2OS; [2]): 0.59; Growth Rate (Fibroblast; [9]): 0.2; Growth Rate (Fibroblast; [10]): 0.38
CN(c1ncccc1CNc1ccnc(-c2cc3cc(Cl)ccc3[nH]2)n1)S(C)(=O)=O	-0.71	-0.53	-0.48	-0.31	-0.36	-0.25	-0.24	-0.09	-0.74	0.52	0.71	0.58	0.74	0.61	0.7	-0.63	-0.43	-0.12	0.15	0.04	Growth Rate (U2OS; [10]): 1; Growth Rate (U2OS; [1]): 0.59; Growth Rate (Fibroblast; [2]): -0.2; Growth Rate (Fibroblast; [4]): -0.15; Growth Rate (Fibroblast; [6]): -0.08
CN(C)C/C=C/C(=O)Nc1ccc(C(=O)N2CCCC(Nc3ncc(Cl)c(-c4c[nH]c5ccccc45)n3)C2)cc1 (stereo not given)	-0.75	-0.93	-0.58	-0.66	-0.42	-0.43	-0.27	-0.31	-0.56	0.51	0.63	0.27	0.26	0.09	0.13	-0.96	-0.75	-0.7	-0.55	-0.06	Growth Rate (U2OS; [10]): 0.12; Growth Rate (U2OS; [1]): 0.53; Growth Rate (Fibroblast; [2]): -0.55; Growth Rate (Fibroblast; [4]): -0.33; Growth Rate (Fibroblast; [6]): -0.1
CCC(C)n1ncn(-c2ccc(N3CCN(c4ccc(OC[C@@H]5CO[C@@](Cn6cncn6)(c6ccc(Cl)cc6Cl)O5)cc4)CC3)cc2)c1=O.CCC(C)n1ncn(-c2ccc(N3CCN(c4ccc(OC[C@H]5CO[C@](Cn6cncn6)(c6ccc(Cl)cc6Cl)O5)cc4)CC3)cc2)c1=O (stereo not given in full)	-0.37	0.11	-0.28	0.15	0.44	0.02	-0.08	0.33	-0.09					0.73	0.94					0.95	Growth Rate (Fibroblast; [9]): 0.6; Growth Rate (Fibroblast; [10]): -0.02
CO/C1=C/C(C)=C\[C@@H](C)[C@@H](O)[C@@H](C)C/C(C)=C\C=C/[C@H](OC)C([C@@H](C)[C@@H](O)[C@H](C)[C@@]2(O)C[C@@H](O)[C@H](C)[C@@H](C(C)C)O2)OC1=O (stereo not given in full)	-0.8	-0.9	-0.61	-0.69	-0.45	-0.5	-0.36	-0.38		0.37	0.39	0.23	0.18	0.14	0.12	-0.77	-0.79	-0.72	-0.61	-0.4	Growth Rate (U2OS; [1]): 0.5; Growth Rate (U2OS; [2]): 0.63; Growth Rate (Fibroblast; [9]): 0.09; Growth Rate (Fibroblast; [10]): -0.31; Growth Rate (Fibroblast; [2]): -0.59; Growth Rate (Fibroblast; [4]): -0.56; Growth Rate (Fibroblast; [6]): -0.46
